Patent US11872298B2, “Cosmetic use of arthrofactin” (L'OREAL, priority 2016, dated 2024)
*1 amine or outer side, *2 acyl side, *3 side chain or, on linkers, in order; H or OH if unused. Where a SMILES comes first, the peptide text is derived from it. Bridges are numbered along the chain shown (N, C = ends). [ ]: non-standard residue; d: D form. X1 = CC(C)CCCCCCCCC[C@H](CC(=O)[*:1])O[*:2]

Test system: genes associated with moisturization in keratinocytes
Experiment: Expression of genes associated with moisturization in keratinocytes cultivated in vitro (quantitative PCR)
Format: cell-based, human
Conditions: 0.002 mg/L and 0.01 mg/L in water
Method: K266 human epidermic keratinocytes were seeded in wells (50,000 cells/well) and cultivated in a Dermalife K medium (Lifeline LL-007) for 3 days at 37° C. and 5% of CO2. At the end of incubation, the culture medium was replaced by a test medium (K Dermalife supplemented with 1.5 mM CaCl2) containing or not containing (control) the mixture of arthrofactins obtained in example 1 in the form of a powder diluted to 0.1% in water or references (retinoic acid at 0.1 μM and 1 μM, or retinol at 10 μM). The cells were then incubated for 24 hours.
In parallel, normal human keratinocytes (NHK, 01.12) were seeded in wells (50,000 cells/well) and cultivated in a COMPLETE KGM medium (KGM BULLETKIT, LONZA, CC-3111) for 3 days at 37° C. and 5% of CO2. […]
The quantification of RNA and quality control were analyzed using LabChip GX (Perkin Elmer). Reverse transcription (RT) of RNA into cDNA was carried out using the Quantitect® inverse transcription kit (QIAGEN) following the manufacturer's recommendations. […]
The expression of selected transcripts was then analyzed by quantitative PCR using a LightCycler 480 Real-Time PCR System 384-well plate system (Roche) using the SYBR® Green incorporation technique (Roche). […]

CC(C)CCCCCCCCC[C@@H]1CC(=O)N[C@@H](CCC(=O)O)C(=O)N[C@@H](CC(C)C)C(=O)N[C@H](CC(C)C)C(=O)N[C@@H](C(C)C)C(=O)N[C@@H](CC(=O)O)C(=O)N[C@H](CC(C)C)C(=O)N[C@@H](CC(C)C)C(=O)O1 [Sodium Surfactin] (EL[dL]VD[dL]L; linker N-C via X1)
Expression of genes associated with moisturization in keratinocytes: lower expression
